Our source for the Kd and IC50 values is US8921546B2, “Imidazolothiazole compounds for the treatment of disease” (Ambit Biosciences Corporation, priority 2006, dated 2014).

One assay concerns the target T1, CSF1R (Homo sapiens, UniProt P07333).
T1 construct: made in house
Briefly: Binding constant (Kd) measurement, phage-displayed kinase competition binding assay, CSF1R. The method, then:
(§1) Binding Constant (Kd) Measurements for Small-Molecule-Kinase Interactions
(§2) By testing across a large class of protein kinases, specificity of the kinase inhibitors provided herein is also determined. The components of the assays include various human kinases expressed as fusions to T7 bacteriophage particles and immobilized ligands that bind to the ATP site of the kinases. […] If the test compound binds the kinase, it competes with the immobilized ligand and prevents binding to the solid support. […] The results are read out by quantitating the amount of fusion protein bound to the solid support, which is accomplished by either traditional phage plaque assays or by quantitative PCR (qPCR) using the phage genome as a template.

For a further assay, the target named is T2, FLT3 (Homo sapiens, UniProt P36888).
T2 construct: made in house
T2 sequence (P36888 27-993): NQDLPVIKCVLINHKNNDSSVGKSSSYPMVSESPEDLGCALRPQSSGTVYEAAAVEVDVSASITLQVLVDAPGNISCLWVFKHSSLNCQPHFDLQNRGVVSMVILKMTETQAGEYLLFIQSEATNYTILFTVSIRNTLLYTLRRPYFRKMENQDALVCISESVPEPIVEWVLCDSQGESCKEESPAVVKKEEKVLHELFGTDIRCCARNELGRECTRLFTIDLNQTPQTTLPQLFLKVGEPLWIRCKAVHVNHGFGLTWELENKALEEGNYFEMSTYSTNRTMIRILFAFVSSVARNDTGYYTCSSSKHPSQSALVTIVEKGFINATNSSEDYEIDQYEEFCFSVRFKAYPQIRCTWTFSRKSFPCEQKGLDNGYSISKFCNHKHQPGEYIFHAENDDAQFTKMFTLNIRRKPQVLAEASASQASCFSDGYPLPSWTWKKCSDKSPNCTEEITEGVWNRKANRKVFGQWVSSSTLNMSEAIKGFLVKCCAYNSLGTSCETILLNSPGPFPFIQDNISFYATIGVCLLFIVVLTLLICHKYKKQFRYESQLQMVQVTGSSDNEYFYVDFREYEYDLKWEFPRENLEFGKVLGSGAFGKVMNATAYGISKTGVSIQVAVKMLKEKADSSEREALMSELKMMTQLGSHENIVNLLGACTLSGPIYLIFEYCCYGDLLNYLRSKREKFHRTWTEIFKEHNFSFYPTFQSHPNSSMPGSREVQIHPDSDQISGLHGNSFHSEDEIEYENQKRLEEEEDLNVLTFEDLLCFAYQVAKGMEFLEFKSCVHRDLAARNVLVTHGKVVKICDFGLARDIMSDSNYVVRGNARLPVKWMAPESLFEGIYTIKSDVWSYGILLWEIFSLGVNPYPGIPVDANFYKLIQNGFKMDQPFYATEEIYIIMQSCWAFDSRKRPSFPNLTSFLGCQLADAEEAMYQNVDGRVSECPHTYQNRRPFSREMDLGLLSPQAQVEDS
Briefly: Binding constant (Kd) measurement, phage-displayed kinase competition binding assay, FLT3. The method, then:
as §1, §2

For another assay, the system named is MV4-11 cells. Briefly: Cellular proliferation assay (MTS), MV4-11. The assay is classed as cell-based. Conditions: Homo sapiens. From the text: Cellular Proliferation Assay
Cancer cell viability and proliferation can be evaluated using a tetrazolium salt reduction cell-based assay. In viable cells, this colorimetric assay can measure mitochondrial reduction of a tetrazolium component (MTS) into an […] formazan product.
This cell line was used to determine the ability of the compounds provided herein to inhibit Flt3 in intact cells. The RS4-11 cell line, which expresses the wild-type (WT) receptor, is also used as a control to verify the test compound's ability to inhibit the FLT3 receptor containing the ITD mutation.
MV4-11 cells were plated at 10,000 cells per well in DMEM medium with 0.5% serum. RS4-11 cells were plated at 20,000 cells per well in RPMI with 0.5% serum. […] An aliquot from each well of the compound plate was transferred to the plated cells and then incubated @ 37° C. in 5% CO2 (for 3 days for the MV4-11 cells, 2 days for the RS4-11 cells).
MTS tetrazolium compound (Owen's reagent) was thawed in a H2O bath. 20 μl of MTS tetrazolium was added to each well of optical plate and the cells were incubated @ 37° C. in 5% CO2 for 2 hours.

In a further assay the target is T3, KIT (Homo sapiens, UniProt P10721).
T3 construct: made in house
Briefly: Binding constant (Kd) measurement, phage-displayed kinase competition binding assay, KIT. The method, then:
as §1, §2

The mark [1] stands for this setting: MV4-11 cells, 72 hour incubation, MTS, read-out: Cellular Assay MV-proliferation IC50.
[2] abbreviates: read-out: Binding Assay FLT3 Kd.

Where a name gives a salt, the structure may show the parent alone. Read-outs that look alike come from different tables or passages of the source.

T1 sequence (P07333 20-972): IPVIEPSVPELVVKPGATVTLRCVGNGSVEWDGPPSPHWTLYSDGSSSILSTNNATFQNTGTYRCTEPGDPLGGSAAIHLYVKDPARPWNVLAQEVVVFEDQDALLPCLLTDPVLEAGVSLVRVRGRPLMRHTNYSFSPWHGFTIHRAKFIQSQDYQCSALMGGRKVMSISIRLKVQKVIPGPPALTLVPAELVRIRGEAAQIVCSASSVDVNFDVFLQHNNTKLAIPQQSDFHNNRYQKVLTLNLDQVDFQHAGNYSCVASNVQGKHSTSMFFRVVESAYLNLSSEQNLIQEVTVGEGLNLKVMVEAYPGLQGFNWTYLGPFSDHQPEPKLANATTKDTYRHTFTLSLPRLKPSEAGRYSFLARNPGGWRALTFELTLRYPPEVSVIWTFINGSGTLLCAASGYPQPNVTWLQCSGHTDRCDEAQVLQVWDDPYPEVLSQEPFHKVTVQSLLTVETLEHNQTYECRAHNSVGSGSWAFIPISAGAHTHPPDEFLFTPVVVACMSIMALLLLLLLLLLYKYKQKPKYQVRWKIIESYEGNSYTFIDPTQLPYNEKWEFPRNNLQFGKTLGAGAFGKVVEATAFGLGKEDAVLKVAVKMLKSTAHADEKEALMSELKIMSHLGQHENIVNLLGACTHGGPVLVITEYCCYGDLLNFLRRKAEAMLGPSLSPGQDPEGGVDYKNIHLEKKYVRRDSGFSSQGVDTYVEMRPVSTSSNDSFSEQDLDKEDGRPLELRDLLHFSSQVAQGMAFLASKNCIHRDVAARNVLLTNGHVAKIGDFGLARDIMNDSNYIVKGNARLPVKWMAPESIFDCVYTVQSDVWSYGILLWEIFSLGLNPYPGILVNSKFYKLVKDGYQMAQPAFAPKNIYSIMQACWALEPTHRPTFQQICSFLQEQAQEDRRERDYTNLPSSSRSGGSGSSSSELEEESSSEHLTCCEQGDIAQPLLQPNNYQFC
T3 sequence (P10721 26-976): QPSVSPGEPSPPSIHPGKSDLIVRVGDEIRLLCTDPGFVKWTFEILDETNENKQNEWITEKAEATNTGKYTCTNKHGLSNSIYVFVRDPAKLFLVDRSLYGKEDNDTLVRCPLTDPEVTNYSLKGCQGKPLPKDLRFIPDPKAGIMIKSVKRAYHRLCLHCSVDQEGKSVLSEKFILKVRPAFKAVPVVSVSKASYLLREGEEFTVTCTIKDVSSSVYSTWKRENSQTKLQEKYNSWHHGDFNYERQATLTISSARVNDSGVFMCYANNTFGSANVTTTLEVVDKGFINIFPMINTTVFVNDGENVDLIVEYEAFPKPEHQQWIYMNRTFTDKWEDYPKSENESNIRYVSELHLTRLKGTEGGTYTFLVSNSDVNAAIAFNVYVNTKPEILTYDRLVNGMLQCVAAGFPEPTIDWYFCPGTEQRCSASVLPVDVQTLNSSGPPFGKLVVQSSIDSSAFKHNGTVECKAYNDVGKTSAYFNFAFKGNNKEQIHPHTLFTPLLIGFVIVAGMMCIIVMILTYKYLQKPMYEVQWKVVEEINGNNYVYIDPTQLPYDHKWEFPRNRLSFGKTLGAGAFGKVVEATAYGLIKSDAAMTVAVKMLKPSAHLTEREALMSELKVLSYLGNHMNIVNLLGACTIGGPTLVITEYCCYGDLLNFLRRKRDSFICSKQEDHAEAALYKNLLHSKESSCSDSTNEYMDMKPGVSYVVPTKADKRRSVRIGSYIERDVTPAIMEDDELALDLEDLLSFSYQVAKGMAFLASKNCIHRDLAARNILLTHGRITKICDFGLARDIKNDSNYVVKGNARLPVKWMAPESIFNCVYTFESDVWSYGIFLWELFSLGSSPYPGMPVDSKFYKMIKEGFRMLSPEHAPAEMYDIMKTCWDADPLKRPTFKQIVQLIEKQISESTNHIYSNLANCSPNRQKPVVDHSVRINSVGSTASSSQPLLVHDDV

Usually Kd stands for the concentration at which binding is half-saturated. Take `CCOC(=O)CCc1ccc2c(c1)sc1nc(-c3ccc(NC(=O)Nc4cc(C(C)(C)C)on4)cc3)cn12` [Compound C3, Ethyl 3-{2-[4-({[(5-tert-Butylisoxazol-3-yl)amino]carbonyl}amino)phenyl]imidazo[2,1-b][1,3]benzothiazol-7-yl}propanoate]: the Kd was over 1000 nM on CSF1R, under 10 nM at FLT3 and 10 to 100 nM on KIT. Also, the IC50 in the assay on MV4-11 cells (setting [1]) is under 10 nM.
Regarding `CC(C)(C)c1cc(NC(=O)Nc2ccc(-c3cn4c(n3)sc3cc(CCC(=O)NCCN5CCCCC5)ccc34)cc2)no1` [Compound C10, 3-(2-{4-[3-(5-tert-butyl-isoxazol-3-yl)-ureido]-phenyl}-benzo[d]imidazo[2,1-b]thiazol-7-yl)-N-(2-piperidin-1-yl-ethyl)-propionamide hydrochloride], the values for the Kd on CSF1R, on FLT3 (setting [2]) and at KIT were 10 to 100 nM, under 10 nM and under 10 nM, respectively. Besides, the IC50 in the assay on MV4-11 cells (setting [1]) is under 10 nM.
On to `CCN1CCN(Cc2ccc3c(c2)sc2nc(-c4ccc(NC(=O)Nc5cc(C(C)(C)C)on5)cc4)cn23)CC1` [Compound D9, 1-(5-tert-Butyl-isoxazol-3-yl)-3-{4-[7-(4-ethyl-piperazin-1-ylmethyl)-imidazo[2,1-b][1,3]benzothiazol-2-yl]-phenyl}-urea hydrochloride], for which the Kd at CSF1R was 10 to 100 nM; on FLT3 (setting [2]), under 10 nM; on KIT it was under 10 nM. Also, in the assay with MV4-11 cells (MV4-11, 72 h, read-out: Cellular Assay MV-proliferation IC50 (nM)), the IC50 is under 10 nM.
In the case of `O=C(CCc1ccc2c(c1)sc1nc(-c3ccc(NC(=O)N4CCOCC4)cc3)cn12)N1CCOCC1` [Compound E1, Morpholine-4-carboxylic acid {4-[7-(3-morpholin-4-yl-3-oxo-propyl)-benzo[d]imidazo[21-b]thiazol-2-yl]-phenyl}amide], the Kd was over 1000 nM at CSF1R, 100 to 1000 nM at FLT3 (setting [2]) and over 1000 nM at KIT. Besides, the IC50 in the assay on MV4-11 cells (setting [1]) was over 100 nM.
On to `CC(C)[C@@H](N)C(=O)Oc1ccc2c(c1)sc1nc(-c3ccc(NC(=O)Nc4cc(C(C)(C)C)on4)cc3)cn12` [Compound B5, (2R)-2-amino-3-methyl-butyric acid 2-{4-[3-(5-tert-butyl-isoxazol-3-yl)-ureido]-phenyl}-benzo[d]imidazo[2,1-b]thiazol-7-yl ester], for which the Kd at CSF1R was 10 to 100 nM; on FLT3, under 10 nM; on KIT, 10 to 100 nM. The IC50 in the assay with MV4-11 cells (setting [1]) was under 10 nM.
Take `CC(C)(C)c1cc(NC(=O)Nc2ccc(-c3cn4c(n3)sc3cc(CCCN5CCOCC5)ccc34)cc2)no1` [Compound D3, 1-(5-tert-Butyl-isoxazol-3-yl)-3-{4-[7-(3-morpholin-4-yl-propyl)-benzo[d]imidazo[2,1-b]thiazol-2-yl]-phenyl}-urea]: the Kd at CSF1R is 10 to 100 nM; on FLT3 (setting [2]), under 10 nM; at KIT, under 10 nM. The IC50 in the assay with MV4-11 cells (setting [1]) is under 10 nM.
In the case of `CCN(CC)CCNC(=O)Cc1ccc2c(c1)sc1nc(-c3ccc(NC(=O)Nc4cc(C(C)(C)C)on4)cc3)cn12` [Compound C16, 2-(2-{4-[3-(5-tert-butyl-isoxazol-3-yl)-ureido]-phenyl}-benzo[d]imidazo[2,1-b]thiazol-7-yl)-N-(2-diethylamino-ethyl)-acetamide hydrochloride], the Kd at CSF1R is 10 to 100 nM; at KIT, under 10 nM. In the assay with MV4-11 cells (setting [1]), the IC50 is under 10 nM.
As to `O=C(Nc1ccc(-c2cn3c(n2)sc2cc(OCCN4CCOCC4)ccc23)cc1)Nc1ccc2c(c1)OCO2` [Compound F3], the Kd was over 1000 nM at CSF1R, under 10 nM on FLT3 (setting [2]) and under 10 nM at KIT.
`CC(C)(C)c1cc(NC(=O)Nc2ccc(-c3cn4c(n3)sc3cc(C(=O)NCCN5CCOCC5)ccc34)cc2)no1` [Compound C19, 2-{4-[3-(5-tert-butyl-isoxazol-3-yl)-ureido]-phenyl}imidazo[2,1-b][1,3]benzothiazole-7-carboxylic acid (2-morpholin-4-yl-ethyl)-amide hydrochloride]: the Kd was 10 to 100 nM at CSF1R and under 10 nM on KIT. In addition, the IC50 with MV4-11 cells (setting [1]) is under 10 nM.
